This passage reports IC50 results from patent US11358950B2, “SMAC mimetics used as IAP inhibitors and use thereof” (CHIA TAI TIANQING PHARMACEUTICAL GROUP CO., LTD., priority 2017, dated 2022).

pIC50: −log10 of the molar value.

One may read the pIC50 as the negative decadic logarithm of the IC50, by convention in mol/L.

For one assay, the system named is MDA-MB-231 cells. In words: In-vitro cell viability test (CellTiter-Glo, 7 days). The format is cell-based. The following applies: Homo sapiens, 168 h, 7 days incubation. As for the experimental part: RPMI 1640 medium (Invitrogen-22400089); fetal bovine serum (Invitrogen-10099141); Trypsin, 0.05% (1×) with EDTA 4Na (Invitrogen-25300062); luminescent cell viability assay kit (Promega-G7573); Dulbecco's phosphate buffered saline (HyClone-SH30028.01B); and 384-well plate (Corning-6007680). Envision Multi-label Analyzer.
1. 30 μL of MDA-MB-231 cell suspension, which contained 250 MDA-MB-231 cells, was added into the wells of a 384-microwell plate.
2. 20 μL of a test compound (the test compounds were formulated at a high concentration of 10 μM, the test compounds were subjected to a 5-fold gradient dilution, and each compound was diluted to 10 concentration gradients) was added, and then the cell plate was put back into a carbon dioxide incubator to be incubated for 7 days.
3. The cell plate was kept flat at room temperature for 30 minutes.
4. 20 μL of a Promega CellTiter-Glo reagent was added into each well of the cell plate.
5. After 10 minutes, the Envision Multi-label Analyzer was used for data reading.
On the technique in general: Cellular ATP, detected with luciferase, serves as a proxy for viable cell number.

The next assay addresses T1, cIAP1 BIR3 (Homo sapiens, UniProt Q13490).
T1 construct: covering amino acids 258 to 363; GST; His; purchased RBC APT-11-370; host or cells: E. coli
In words: Binding experiment of cIAP1 BIR3 (fluorescence polarization). The following applies: 20 nM cIAP1 BIR3, 5 nM probe ARPFAQ-K(5-FAM)-NH2, 60 min. Here is the method: (§1) Buffer system for the test (a buffer for cIAP1 BIR3 or XIAP BIR3): 100 mM potassium phosphate, pH 7.5; 0.1% BSA; 0.005% Triton X-100; and 1% dimethyl sulfoxide.
(§2) Probe: ARPFAQ-K(5-FAM)-NH2.
cIAP1-BIR3-his: RBC Cat #APT-11-370, the BIR3 domain of human cIAP1 (covering amino acids 258 to 363; cIAP1 BIR3), as a GST-fusion protein expressed and purified from E. coli.
(§3) Reaction conditions: 5 nM ARPFAQ-K(5-FAM)-NH2, 20 nM cIAP1 BIR3 and 30 nM XIAP BIR3.
(§4) First, a fresh buffer for cIAP1 BIR3 or XIAP BIR3 was prepared, a cIAP1 BIR3 or XIAP BIR3 solution (2-fold diluted) was added thereto, and then a compound to be tested which had been dissolved in 100% DMSO was added into the buffer solution containing cIAP1 BIR3 or XIAP BIR3 by an acoustic technique. Thereafter, the probe (2-fold diluted) was added, and the resultant was mixed and incubated in the dark at room temperature for 60 minutes. The fluorescence polarization was measured and the mP value was calculated. Finally, the IC50 value was obtained.
For orientation: Polarisation of emitted light reports the rotation of a fluorescent probe.

Another assay concerns the target T2, XIAP BIR3 (Homo sapiens, UniProt P98170).
T2 construct: covering amino acids 255 to 356; GST; His; purchased RBC APT-11-374; host or cells: E. coli
In words: Binding experiment of XIAP BIR3 (fluorescence polarization). The following applies: 30 nM XIAP BIR3, 5 nM probe ARPFAQ-K(5-FAM)-NH2, 60 min. Here is the method: as §1, §2
XIAP-BIR3-his: RBC Cat #APT-11-374, the BIR3 domain of XIAP (covering amino acids 255 to 356; XIAP BIR3), as a GST-fusion protein expressed and purified from E. coli.
as §3, §4

T1 sequence (Q13490 258-363): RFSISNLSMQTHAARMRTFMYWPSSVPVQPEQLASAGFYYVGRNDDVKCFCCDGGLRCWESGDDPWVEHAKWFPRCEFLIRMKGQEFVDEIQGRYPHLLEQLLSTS
T2 sequence (P98170 255-356): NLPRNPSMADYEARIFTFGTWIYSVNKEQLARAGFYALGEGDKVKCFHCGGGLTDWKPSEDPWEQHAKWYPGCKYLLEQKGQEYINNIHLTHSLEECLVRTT

On to `CN[C@@H](C)C(=O)N[C@H](C(=O)N1CCC[C@H]1Cn1cc(C(C)=O)c2cc(F)ccc21)C1CCCCC1` [Example 1], for which the pIC50 with MDA-MB-231 cells was 7.15; on cIAP1 BIR3, 8.43; at XIAP BIR3, 7.13.

Take `CN[C@@H](C)C(=O)N[C@H](C(=O)N1CCC[C@H]1Cn1cc(C(C)=O)c2cc(C(F)(F)F)ccc21)C1CCCCC1` [Example 3]: the figures for the pIC50 in the assay on MDA-MB-231 cells, at cIAP1 BIR3 and on XIAP BIR3 were 7.80, 9.00 and 7.74, respectively.

With `CN[C@@H](C)C(=O)N[C@H](C(=O)N1CCC[C@H]1Cn1cc(C(C)=O)c2c(Cl)cccc21)C1CCCCC1` [Example 4], the negative-log IC50 (pIC50) was 6.66 with MDA-MB-231 cells, 8.59 at cIAP1 BIR3 and 7.01 at XIAP BIR3.

Regarding `CN[C@@H](C)C(=O)N[C@H](C(=O)N1CCC[C@H]1Cn1cc(C(C)=O)c2ccc(Cl)cc21)C1CCCCC1` [Example 5], the pIC50 is 7.12 in the assay with MDA-MB-231 cells, 8.59 at cIAP1 BIR3 and 7.02 at XIAP BIR3.

For the compound `CN[C@@H](C)C(=O)N[C@H](C(=O)N1CCC[C@H]1Cn1cc(C(C)=O)c2cccc(Cl)c21)C1CCCCC1` [Example 6], the negative-log IC50 (pIC50) was 6.30 in the assay on MDA-MB-231 cells, 7.23 at cIAP1 BIR3 and 8.03 at XIAP BIR3.

Consider `CN[C@@H](C)C(=O)N[C@H](C(=O)N1CCC[C@H]1Cn1cc(C(C)=O)c2cc(Br)ccc21)C1CCCCC1` [Example 7], for which the pIC50 is 7.78 in the assay on MDA-MB-231 cells, 8.31 at cIAP1 BIR3 and 7.35 on XIAP BIR3.

As for `CN[C@@H](C)C(=O)N[C@H](C(=O)N1CCC[C@H]1Cn1cc(C(C)=O)c2cc(Cl)c(Cl)cc21)C1CCCCC1` [Example 8], the negative logarithm of the IC50 (pIC50) in the assay on MDA-MB-231 cells was 7.12; at cIAP1 BIR3, 8.25; on XIAP BIR3, 7.39.

For `CN[C@@H](C)C(=O)N[C@H](C(=O)N1CCC[C@H]1Cn1cc(C(C)=O)c2cc(Cl)c(F)cc21)C1CCCCC1` [Example 9], the pIC50 with MDA-MB-231 cells is 7.59; at cIAP1 BIR3 it was 8.24; at XIAP BIR3 it was 7.70.

As to `CN[C@@H](C)C(=O)N[C@H](C(=O)N1CCC[C@H]1Cn1cc(C(C)=O)c2c(F)c(Cl)ccc21)C1CCCCC1` [Example 10], the negative logarithm of the IC50 (pIC50) was 7.49 in the assay on MDA-MB-231 cells, 8.35 at cIAP1 BIR3 and 7.57 at XIAP BIR3.

Take `CN[C@@H](C)C(=O)N[C@H](C(=O)N1CCC[C@H]1Cn1cc(C(C)=O)c2cc(OC(F)(F)F)ccc21)C1CCCCC1` [Example 11]: the negative-log IC50 (pIC50) with MDA-MB-231 cells is 7.13; at cIAP1 BIR3, 8.28; on XIAP BIR3, 6.86.

On to `CN[C@@H](C)C(=O)N[C@H](C(=O)N1CCC[C@H]1Cn1c(C)c(C(C)=O)c2cc(Cl)ccc21)C1CCCCC1` [Example 13], for which the pIC50 was 7.35 with MDA-MB-231 cells, 8.30 at cIAP1 BIR3 and 7.51 at XIAP BIR3.

`CN[C@@H](C)C(=O)N[C@H](C(=O)N1CCC[C@H]1Cn1nc(C(C)=O)c2cc(Cl)ccc21)C1CCCCC1` [Example 14]: the negative logarithm of the IC50 (pIC50) in the assay on MDA-MB-231 cells is 7.24; on cIAP1 BIR3, 8.21; at XIAP BIR3, 7.30.

In the case of `CN[C@@H](C)C(=O)N[C@H](C(=O)N1CCC[C@H]1Cn1nc(C(C)=O)c2cc(F)ccc21)C1CCCCC1` [Example 15], the negative-log IC50 (pIC50) in the assay on MDA-MB-231 cells is 7.03; at cIAP1 BIR3 it was 8.40; at XIAP BIR3 it was 6.59.

Consider `CN[C@@H](C)C(=O)N[C@H](C(=O)N1CCC[C@H]1Cn1cc(C(C)=O)c2cc(Cl)cnc21)C1CCCCC1` [Example 16], for which the pIC50 was 6.96 in the assay on MDA-MB-231 cells, 8.08 on cIAP1 BIR3 and 6.46 on XIAP BIR3.

As to `CN[C@@H](C)C(=O)N[C@H](C(=O)N1CCC[C@H]1Cn1cc(C#N)c2cc(F)ccc21)C1CCCCC1` [Example 17], the pIC50 with MDA-MB-231 cells is 7.10; at cIAP1 BIR3 it was 8.72; on XIAP BIR3, 7.09.

Consider `CN[C@@H](C)C(=O)N[C@H](C(=O)N1CCC[C@H]1Cn1cc(C#N)c2cc(Cl)ccc21)C1CCCCC1` [Example 18], for which the figures for the negative logarithm of the IC50 (pIC50) in the assay with MDA-MB-231 cells, at cIAP1 BIR3 and on XIAP BIR3 were 7.65, 8.29 and 7.37, respectively.

As for `CN[C@@H](C)C(=O)N[C@H](C(=O)N1CCC[C@H]1Cn1nc(C#N)c2cc(Cl)ccc21)C1CCCCC1` [Example 19], the negative logarithm of the IC50 (pIC50) in the assay with MDA-MB-231 cells was 7.37; at cIAP1 BIR3, 8.34; on XIAP BIR3, 6.89.

`CN[C@@H](C)C(=O)N[C@H](C(=O)N1CCC[C@H]1Cn1cc(S(C)(=O)=O)c2cc(F)ccc21)C1CCCCC1` [Example 20]: the pIC50 in the assay with MDA-MB-231 cells is 7.12; at cIAP1 BIR3 it was 8.96; on XIAP BIR3, 7.27.

For the compound `CN[C@@H](C)C(=O)N[C@H](C(=O)N1CCC[C@H]1Cn1cc(S(C)(=O)=O)c2cc(Cl)ccc21)C1CCCCC1` [Example 21], the negative logarithm of the IC50 (pIC50) in the assay on MDA-MB-231 cells is 7.79; at cIAP1 BIR3, 8.38; at XIAP BIR3, 7.43.

With `CN[C@@H](C)C(=O)N[C@H](C(=O)N1CCC[C@H]1Cn1cc(C(N)=O)c2cc(F)ccc21)C1CCCCC1` [Example 22], the pIC50 with MDA-MB-231 cells was 7.07; on cIAP1 BIR3 it was 8.52; on XIAP BIR3, 7.38.

For the compound `CN[C@@H](C)C(=O)N[C@H](C(=O)N1CCC[C@H]1Cn1cc(C(=O)N(C)C)c2cc(Cl)ccc21)C1CCCCC1` [Example 23], the negative-log IC50 (pIC50) in the assay on MDA-MB-231 cells is 7.34; on cIAP1 BIR3, 8.34; on XIAP BIR3, 7.67.

`CN[C@@H](C)C(=O)N[C@H](C(=O)N1CCC[C@H]1Cn1cc(C(=O)C(C)C)c2cc(Cl)ccc21)C1CCCCC1` [Example 24]: the pIC50 in the assay with MDA-MB-231 cells was 7.14; at cIAP1 BIR3 it was 8.39; on XIAP BIR3, 7.72.

As for `CN[C@@H](C)C(=O)N[C@H](C(=O)N1CCC[C@H]1Cn1cc(-c2ccccc2C)c2cc(F)ccc21)C1CCCCC1` [Example 25], the negative logarithm of the IC50 (pIC50) with MDA-MB-231 cells was 5.94; on cIAP1 BIR3, 8.17; on XIAP BIR3 it was 6.68.

As to `CN[C@@H](C)C(=O)N[C@H](C(=O)N1CCC[C@H]1Cn1cc(-c2ccnn2C)c2cc(F)ccc21)C1CCCCC1` [Example 26], the pIC50 in the assay with MDA-MB-231 cells was 6.74; on cIAP1 BIR3, 8.96; at XIAP BIR3, 7.22.

Turning to `CN[C@@H](C)C(=O)N[C@H](C(=O)N1CCC[C@H]1Cn1cc(-c2ccnn2C)c2cc(Cl)ccc21)C1CCCCC1` [Example 27], the pIC50 in the assay with MDA-MB-231 cells is 6.55; on cIAP1 BIR3 it was 8.36; at XIAP BIR3, 7.33.

As to `CN[C@@H](C)C(=O)N[C@H](C(=O)N1CCC[C@H]1Cn1cc(N2CCCC2=O)c2cc(Cl)ccc21)C1CCCCC1` [Example 28], the negative logarithm of the IC50 (pIC50) in the assay with MDA-MB-231 cells was 7.44; on cIAP1 BIR3 it was 8.28; at XIAP BIR3, 7.56.

Regarding `CN[C@@H](C)C(=O)N[C@H](C(=O)N1CCC[C@H]1Cn1cc(N2CCN(C)C2=O)c2cc(Cl)ccc21)C1CCCCC1` [Example 29], the figures for the negative logarithm of the IC50 (pIC50) with MDA-MB-231 cells, at cIAP1 BIR3 and on XIAP BIR3 were 6.87, 8.21 and 7.50, respectively.

For `CN[C@@H](C)C(=O)N[C@H](C(=O)N1CCC[C@H]1Cn1cc(N2CCOC2=O)c2cc(Cl)ccc21)C1CCCCC1` [Example 30], the negative logarithm of the IC50 (pIC50) in the assay on MDA-MB-231 cells was 7.32; on cIAP1 BIR3 it was 8.36; on XIAP BIR3 it was 7.67.

Take `CN[C@@H](C)C(=O)N[C@H](C(=O)N1C[C@@H](Oc2ccccc2)C[C@H]1Cn1cc(C(C)=O)c2cc(F)ccc21)C1CCCCC1` [Example 31]: the negative logarithm of the IC50 (pIC50) in the assay on MDA-MB-231 cells was 5.84; on cIAP1 BIR3, 8.43; on XIAP BIR3 it was 7.31.
